Measurements as given in paper PMC6777076 (ACS Omega, 2019).

Biological target: T1, uridine nucleoside ribohydrolase (UNH) (Trichomonas vaginalis, UniProt A2FTT0)
T1 sequence (A2FTT0 1-347): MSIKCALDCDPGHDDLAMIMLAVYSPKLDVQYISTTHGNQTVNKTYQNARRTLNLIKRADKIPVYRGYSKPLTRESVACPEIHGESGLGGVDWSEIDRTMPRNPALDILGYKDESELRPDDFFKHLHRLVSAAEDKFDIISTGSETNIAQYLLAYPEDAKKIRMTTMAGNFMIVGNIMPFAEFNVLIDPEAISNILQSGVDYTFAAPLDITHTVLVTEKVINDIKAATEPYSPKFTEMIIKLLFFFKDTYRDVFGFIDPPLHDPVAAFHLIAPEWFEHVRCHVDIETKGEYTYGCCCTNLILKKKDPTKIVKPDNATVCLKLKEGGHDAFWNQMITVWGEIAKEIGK
Test: 19F NMR-based activity assay
Format: biochemical
Details: from UNH potency and heavy atom count

| LE (ligand efficiency) | SMILES |
| --- | --- |
| 0.36 | COc1ccc2[nH]c([S+]([O-])Cc3ncc(C)c(OC)c3C)nc2c1 (centres unmarked) [omeprazole] |
| 0.53 | CSc1nc2ccccc2[nH]1 [2-methylthiobenzimidazole] |
